Test results published in patent publication US5349127A, “Expression of herbicide metabolizing cytochromes P450” (priority 1992, dated 1994).
Several values for one entry are separate records, joined by “and”; a condition that tells them apart may be missing. Identical values can stand only once.

Columns and labels:
S. griseolus ATCC11796 = assay: Metabolism of 10015 analogs to 10014 (Example 17); assay type: in vitro ADME, Streptomyces griseolus
Procedure: Cultures of S. griseolus ATCC11796 were cultivated in sporulation-broth (50ml) at 30° C. with shaking for 17 hours. Each culture was then resuspended in 25 ml fresh sporulation broth, 3.0 mg sulfonylurea was added, and the culture reincubated for 4 days. Aliquots of the medium were then analyzed by HPLC. Formation of 10014 was measured based on similarity of retention time and UV spectrum of the test metabolite to that formed by metabolism of 10015.

[1] = tested on: Tobacco plants (Nicotiana tabactum cv. Wisconsin 38); assay: Foliar spray of 10015 on P450SU1 transformed tobacco plants (Example 21); assay type: in vivo, Nicotiana tabacum; settings: individual plants
Text: Tobacco plants (Nicotiana tabactum cv. Wisconsin 38) transformed with plasmids pAGS112, pSU18, pSSU-SU111, pCab-SU121 or pCab-SU131 (singly) and accumulating the P450SU1 protein were identified by Western blot analysis. Seed arising from the self pollination of individual primary transformants designated AGS112, SU18.8, SU18.14, SSU-SU111.5, […], and Cab-SU131.5 gave rise to the plants described in this Example. The progeny of primary AGS112 and Cab-SU121.5 transformants segregated for single copy kanamycin resistance. In contrast, the progeny of the plants transformed with plasmids containing P450SU1 (other than Cab-SU121.5) segregated for multicopy kanamycin resistance. Thus, most plants containing the gene encoding P450SU1 and sprayed with 10015 in this Example likely contained at least one, and in many cases multiple, copies of P450SU1, while very few individuals likely carried no copies of the gene encoding P450SU1.
Seed from transformed and nontransformed tobacco plants was germinated in a commercial potting mix Metro-Mix® 350 for 25 days. Individual plants were then transferred to 4 inch×4 inch pots containing Metro Mix® 350 and were allowed to grow in the greenhouse for an additional 22 days at which time most plants contained 4-5 fully expanded leaves. A developmentally uniform population of plants was selected from among these transplants and the individual plants were then sprayed with a carrier solution of AGWT (90.2% Acetone: 4.8% Glycerol: 4.8% Water: 0.24% Tween 20 by volume) containing sulfonylurea compound 10015 at concentrations of 1,4, or 16 grams/hectare (g/ha). The sprayed plants were returned to the greenhouse and rated for injury 22 days later.

[2] = tested on: S. griseolus ATCC 11796, 10001 added; assay: Percent conversion of herbicides by cultures (Example 16); assay type: in vitro ADME, Streptomyces griseolus; settings: 3.0 mg herbicide and 3.0 mg 10001 in 25 ml broth; 24 hours
Procedure: (§1) Separate cultures (50 ml) inoculated with S. lividans C37, S. lividans transformed with pCAO200SU1-FeS-B#9, S. griseolus ATCC11796, S. griseolus PH2003 transformed with pIJ425, or S. ariseolus PH2003 transformed with pCS325 were cultured in sporulation broth for 18 hours at 30° C. with shaking. Each culture was then resuspended in 25 ml fresh sporulation broth and 3.0 mg herbicide added. In the case of cultures of S. griseolus ATCC11796, a second culture containing herbicide and 3.0 mg 10001 was also prepared. Each culture was reincubated for 24 hours, then an aliquot of the medium was withdrawn and analyzed by HPLC. The percent conversion of herbicide was determined.

S. griseolus ATCC 11796 = assay: as above; assay type: in vitro ADME, Streptomyces griseolus; settings: 3.0 mg herbicide in 25 ml broth; 24 hours
Procedure: as §1

[3] = tested on: S. griseolus PH2003 pCS325; assay: as above; assay type: in vitro ADME, Streptomyces griseolus; settings: 3.0 mg herbicide in 25 ml broth; 24 hours
Procedure: as §1

[4] = tested on: S. griseolus PH2003 pIJ425; assay: as above; assay type: in vitro ADME, Streptomyces griseolus; settings: 3.0 mg herbicide in 25 ml broth; 24 hours
Procedure: as §1

[5] = tested on: transformed tobacco seedlings; assay: Growth of transformed tobacco seed on medium with 10001 (Example 24); assay type: in vivo, Nicotiana tabacum; settings: AGS502 (no P450 gene), 100 days
Procedure: Tobacco seed from plants transformed with several P450SU1 and P450SU1+FeS-Bconstructions were tested for their ability to grow on tissue culture medium supplemented with compound 10001. Seed was placed on medium containing: 0, 5, 10, 20, and 40 nM of compound 10001. After 100 days, the plants were visually rated for their resistance (due to herbicide detoxification) to the herbicide treatment. All plants grown in the absence of herbicide and those treated with the lowest levels (5 nM and 10 nM) of 10001 had grown so large that no comparative rating was possible. The severely growth inhibited plants (those grown in the presence of 20 nM and 40 nM of compound 10001) were scored by comparing them to AGS502 plants (transformed without P450 gene) in Table 23.
SCORING SYSTEM: Visual comparison to AGS502 plants which uniformly appeared:
Ratings: 0=essentially identical to AGS 502 controls; 1=marginally larger ([…]1.2×) than AGS502; 2=clearly larger (1.2 to 2×) than AGS502; 3=substantially larger (>2×) than AGS502.

SMILES: COc1cc(OC)nc(NC(=O)NS(=O)(=O)c2cccc3c2S(=O)(=O)N(C(C)C)C3)n1 [compound 10015]
- metabolism by P450SU1 to phytotoxic 10014 (S. griseolus ATCC11796): metabolized
- % Damage ([1]; 1 g/ha, AGS 112, 22 days): 0% and 10%
- % Damage ([1]; 1 g/ha, Cab-SU111.8, 22 days): 90% and 95%
- % Damage ([1]; 1 g/ha, Cab-SU121.5, 22 days): 85% and 95% and 20%
- % Damage ([1]; 1 g/ha, Cab-SU131.5, 22 days): 50% and 95% and 90%
- % Damage ([1]; 1 g/ha, SSU-SU111.5, 22 days): 95%
- % Damage ([1]; 1 g/ha, SU18.14, 22 days): 40%
- % Damage ([1]; 1 g/ha, SU18.8, 22 days): 10%
- % Damage ([1]; 1 g/ha, W38, 22 days after spraying): 0% and 10%
- % Damage ([1]; 4 g/ha, AGS 112, 22 days): 0% and 40%
- % Damage ([1]; 4 g/ha, Cab-SU111.8, 22 days): 0% and 99%
- % Damage ([1]; 4 g/ha, Cab-SU121.5, 22 days): 90% and 100% and 95%
- % Damage ([1]; 4 g/ha, Cab-SU131.5, 22 days): 40% and 100%
- % Damage ([1]; 4 g/ha, SSU-SU111.5, 22 days): 100%
- % Damage ([1]; 4 g/ha, SU18.14, 22 days): 70%
- % Damage ([1]; 4 g/ha, SU18.8, 22 days): 60%
- % Damage ([1]; 4 g/ha, W38, 22 days): 0% and 10% and 20% and 30%

SMILES: CCOC(=O)c1ccccc1S(=O)(=O)NC(=O)Nc1nc(Cl)cc(OC)n1 [compound 10001, N-[(4-chloro-6-methoxy-pyrimidin-2-yl)aminocarbonyl]-2-ethoxycarbonylbenzenesulfonamide]
- Percent Conversion [2]: 100%
- Percent Conversion (S. griseolus ATCC 11796): 100%
- Percent Conversion [3]: 100%
- Percent Conversion [4]: 100%
- appearance of AGS502 plants ([5]; 10001 20 nM): ~1 cm tall, 6 leaves ~1 cm diameter
- appearance of AGS502 plants ([5]; 10001 40 nM): ~0.5 cm tall, 6 leaves ~0.3 cm diameter, chlorotic
